Experimental data: article PMC4579270, “Identification and Characterization of an Irreversible Inhibitor of CDK2” (Chemistry & Biology, 2015)

Columns and labels:
Experiment in all cases: Dundee protein kinase screen
Assay type in all cases: biochemical
ROCK 2 = ROCK 2 (Homo sapiens, UniProt O75116); details: ROCK 2, 1µM; read-out: %Remaining activity at 1µM NU6300
Method: (§1) Prior to determining its cellular activity, we carried out a screen to assess its selectivity against a panel of 131 protein kinases under conditions that would not distinguish between a reversible or irreversible mode of action. […] These 13 kinases and 29 additional kinases, selected for their known sensitivity to other inhibitors within the purine series, were then tested in a modified screening format in which the assay was repeated following a 4-hr pre-incubation (Table S3B). […] However, conformational flexibility around the active site may promote such an interaction with a residue from another part of the structure ([Martin et al., 2012]).
(§2) Table S3, Related to Figure 4. NCL-0006300 protein kinase selectivity. (A) NU6300 was tested at a single concentration of 1µM against 131 protein kinases present in a Dundee protein kinase screen (Bain et al., 2007). Values given are % activity remaining and are the average of duplicate measurements: 0-25% (red), 26-50% (yellow), 51-80% […]
(§3) (black) and above 81% (green). […]

TAK1 = target: T1, TAK1 (Homo sapiens, UniProt O43318); details: TAK1, 1µM; read-out: %Remaining activity at 1µM NU6300
T1 sequence (O43318 1-303 limits assumed): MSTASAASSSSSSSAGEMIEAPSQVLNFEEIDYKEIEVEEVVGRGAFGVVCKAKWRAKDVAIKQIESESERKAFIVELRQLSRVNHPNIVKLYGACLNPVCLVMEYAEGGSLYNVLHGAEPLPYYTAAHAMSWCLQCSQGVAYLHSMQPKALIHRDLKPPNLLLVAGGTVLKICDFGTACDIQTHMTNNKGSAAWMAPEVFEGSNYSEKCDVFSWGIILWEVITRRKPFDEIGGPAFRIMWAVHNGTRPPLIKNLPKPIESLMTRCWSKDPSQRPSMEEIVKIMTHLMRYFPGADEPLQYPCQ
Method: as §1, §2, §3

Src = Src (Homo sapiens, UniProt P12931); details: read-out: %Remaining activity at 1µM NU6300
Src, sequence (P12931 whole entry): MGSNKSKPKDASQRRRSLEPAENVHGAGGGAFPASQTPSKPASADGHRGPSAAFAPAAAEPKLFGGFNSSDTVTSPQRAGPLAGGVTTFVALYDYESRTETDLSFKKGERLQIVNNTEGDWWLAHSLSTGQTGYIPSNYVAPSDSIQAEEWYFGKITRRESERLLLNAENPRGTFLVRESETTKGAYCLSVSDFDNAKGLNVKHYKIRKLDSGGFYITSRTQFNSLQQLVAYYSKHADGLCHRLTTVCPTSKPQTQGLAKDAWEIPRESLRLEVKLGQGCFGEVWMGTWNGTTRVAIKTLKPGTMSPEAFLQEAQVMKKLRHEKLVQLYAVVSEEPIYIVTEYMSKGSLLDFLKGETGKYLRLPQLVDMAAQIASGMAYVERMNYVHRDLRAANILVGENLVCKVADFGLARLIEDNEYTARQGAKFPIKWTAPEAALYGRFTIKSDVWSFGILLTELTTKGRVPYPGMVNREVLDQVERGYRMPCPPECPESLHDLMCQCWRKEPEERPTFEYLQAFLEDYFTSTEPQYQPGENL
Method: as §1, §2, §3

PAK6 = PAK6 (Homo sapiens, UniProt Q9NQU5); details: PAK6, 1µM; read-out: %Remaining activity at 1µM NU6300
PAK6, sequence (Q9NQU5 whole entry): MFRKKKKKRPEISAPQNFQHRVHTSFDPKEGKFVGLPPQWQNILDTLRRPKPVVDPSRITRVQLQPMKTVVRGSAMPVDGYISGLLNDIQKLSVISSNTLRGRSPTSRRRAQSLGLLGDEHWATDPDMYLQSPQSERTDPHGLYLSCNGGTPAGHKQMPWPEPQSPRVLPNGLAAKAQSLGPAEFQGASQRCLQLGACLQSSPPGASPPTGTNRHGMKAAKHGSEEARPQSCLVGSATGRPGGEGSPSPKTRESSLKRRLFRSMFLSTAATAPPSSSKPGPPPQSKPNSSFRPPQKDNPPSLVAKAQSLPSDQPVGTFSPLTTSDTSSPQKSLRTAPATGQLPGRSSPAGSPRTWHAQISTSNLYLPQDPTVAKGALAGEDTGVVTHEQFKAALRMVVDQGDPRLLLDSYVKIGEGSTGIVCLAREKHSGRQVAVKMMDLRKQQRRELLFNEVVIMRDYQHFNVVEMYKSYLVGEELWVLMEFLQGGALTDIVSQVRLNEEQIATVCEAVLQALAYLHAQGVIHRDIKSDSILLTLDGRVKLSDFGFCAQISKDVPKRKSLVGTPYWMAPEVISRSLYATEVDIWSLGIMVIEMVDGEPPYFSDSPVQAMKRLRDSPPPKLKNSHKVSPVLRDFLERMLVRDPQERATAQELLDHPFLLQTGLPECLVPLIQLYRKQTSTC
Method: as §1, §2, §3

NUAK1 = target: T2, NUAK1 (Homo sapiens, UniProt O60285); details: NUAK1, 1µM; read-out: %Remaining activity at 1µM NU6300
T2 sequence (O60285 1-661): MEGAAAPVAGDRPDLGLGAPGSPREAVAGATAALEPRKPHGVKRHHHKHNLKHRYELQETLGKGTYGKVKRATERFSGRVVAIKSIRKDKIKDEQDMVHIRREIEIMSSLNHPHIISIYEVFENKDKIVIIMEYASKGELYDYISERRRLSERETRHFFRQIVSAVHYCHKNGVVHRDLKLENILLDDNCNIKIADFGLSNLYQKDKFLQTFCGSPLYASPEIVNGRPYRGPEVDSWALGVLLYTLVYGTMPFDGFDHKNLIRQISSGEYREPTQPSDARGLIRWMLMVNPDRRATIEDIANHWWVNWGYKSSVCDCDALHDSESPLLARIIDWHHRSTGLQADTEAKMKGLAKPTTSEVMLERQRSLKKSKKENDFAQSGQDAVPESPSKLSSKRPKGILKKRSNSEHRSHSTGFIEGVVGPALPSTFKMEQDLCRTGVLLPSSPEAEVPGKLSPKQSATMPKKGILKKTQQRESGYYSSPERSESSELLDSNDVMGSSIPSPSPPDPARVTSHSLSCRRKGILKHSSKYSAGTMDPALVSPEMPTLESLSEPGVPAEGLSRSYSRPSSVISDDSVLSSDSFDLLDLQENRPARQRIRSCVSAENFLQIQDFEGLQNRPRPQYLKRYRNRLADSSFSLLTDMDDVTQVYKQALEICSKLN
Method: as §1, §2, §3

PHK = system: PHK
Method: as §1, §2, §3

TBK1 = target: T3, TBK1 (Homo sapiens, UniProt Q9UHD2); details: TBK1, 1µM; read-out: %Remaining activity at 1µM NU6300
T3 sequence (Q9UHD2 1-729): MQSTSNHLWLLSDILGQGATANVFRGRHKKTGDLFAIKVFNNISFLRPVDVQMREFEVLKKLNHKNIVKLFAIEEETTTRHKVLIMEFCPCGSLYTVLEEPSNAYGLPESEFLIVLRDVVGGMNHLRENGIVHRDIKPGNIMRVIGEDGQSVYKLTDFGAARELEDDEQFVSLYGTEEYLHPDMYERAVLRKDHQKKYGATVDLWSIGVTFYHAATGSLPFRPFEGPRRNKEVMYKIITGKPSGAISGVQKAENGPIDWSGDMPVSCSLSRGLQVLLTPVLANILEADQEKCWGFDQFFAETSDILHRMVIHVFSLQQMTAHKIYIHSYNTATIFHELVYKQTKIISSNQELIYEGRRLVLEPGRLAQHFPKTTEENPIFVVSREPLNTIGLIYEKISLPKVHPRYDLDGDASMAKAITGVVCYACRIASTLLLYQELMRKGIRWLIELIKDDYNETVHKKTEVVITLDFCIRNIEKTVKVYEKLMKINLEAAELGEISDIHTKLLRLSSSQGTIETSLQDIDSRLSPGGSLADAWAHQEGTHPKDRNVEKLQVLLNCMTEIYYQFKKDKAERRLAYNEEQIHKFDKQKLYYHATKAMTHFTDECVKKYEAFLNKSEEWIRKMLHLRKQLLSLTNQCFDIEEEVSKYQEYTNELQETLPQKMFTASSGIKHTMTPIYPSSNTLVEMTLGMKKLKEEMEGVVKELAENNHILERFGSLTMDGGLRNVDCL
Method: as §1, §2, §3

PLK1 = PLK1 (Homo sapiens, UniProt P53350); details: PLK1, 1µM; read-out: %Remaining activity at 1µM NU6300
PLK1, sequence (P53350 whole entry): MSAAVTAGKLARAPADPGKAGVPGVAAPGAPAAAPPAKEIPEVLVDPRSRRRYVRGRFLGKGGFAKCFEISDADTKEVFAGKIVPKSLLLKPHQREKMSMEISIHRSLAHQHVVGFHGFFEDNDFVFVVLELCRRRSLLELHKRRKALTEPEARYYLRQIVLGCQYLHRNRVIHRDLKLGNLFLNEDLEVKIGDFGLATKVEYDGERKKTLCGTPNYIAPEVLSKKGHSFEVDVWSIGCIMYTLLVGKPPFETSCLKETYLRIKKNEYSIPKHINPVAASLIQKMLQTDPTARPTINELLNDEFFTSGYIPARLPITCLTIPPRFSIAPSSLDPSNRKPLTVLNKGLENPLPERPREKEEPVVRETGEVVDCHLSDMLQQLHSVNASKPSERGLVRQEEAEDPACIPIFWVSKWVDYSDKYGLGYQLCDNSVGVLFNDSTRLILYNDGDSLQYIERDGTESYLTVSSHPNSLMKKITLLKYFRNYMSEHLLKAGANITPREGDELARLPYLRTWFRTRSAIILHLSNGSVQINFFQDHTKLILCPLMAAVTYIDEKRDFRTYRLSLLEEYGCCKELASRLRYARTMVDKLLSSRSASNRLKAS
Method: as §1, §2, §3

MST3 = MST3 (Homo sapiens, UniProt Q9Y6E0); details: MST3, 1µM; read-out: %Remaining activity at 1µM NU6300
MST3, sequence (Q9Y6E0 whole entry): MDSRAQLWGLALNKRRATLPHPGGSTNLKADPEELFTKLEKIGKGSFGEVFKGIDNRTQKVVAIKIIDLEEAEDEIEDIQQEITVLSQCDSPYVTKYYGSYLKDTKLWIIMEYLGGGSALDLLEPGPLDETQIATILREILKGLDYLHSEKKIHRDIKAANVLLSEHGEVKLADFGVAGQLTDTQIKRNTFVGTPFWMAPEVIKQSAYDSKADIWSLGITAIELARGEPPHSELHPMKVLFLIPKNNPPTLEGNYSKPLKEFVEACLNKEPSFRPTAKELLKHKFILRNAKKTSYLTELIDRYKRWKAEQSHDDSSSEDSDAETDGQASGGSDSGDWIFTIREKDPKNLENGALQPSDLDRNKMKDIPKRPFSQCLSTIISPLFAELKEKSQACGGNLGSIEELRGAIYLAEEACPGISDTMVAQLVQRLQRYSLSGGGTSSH
Method: as §1, §2, §3

ROCK 2, sequence (O75116 whole entry): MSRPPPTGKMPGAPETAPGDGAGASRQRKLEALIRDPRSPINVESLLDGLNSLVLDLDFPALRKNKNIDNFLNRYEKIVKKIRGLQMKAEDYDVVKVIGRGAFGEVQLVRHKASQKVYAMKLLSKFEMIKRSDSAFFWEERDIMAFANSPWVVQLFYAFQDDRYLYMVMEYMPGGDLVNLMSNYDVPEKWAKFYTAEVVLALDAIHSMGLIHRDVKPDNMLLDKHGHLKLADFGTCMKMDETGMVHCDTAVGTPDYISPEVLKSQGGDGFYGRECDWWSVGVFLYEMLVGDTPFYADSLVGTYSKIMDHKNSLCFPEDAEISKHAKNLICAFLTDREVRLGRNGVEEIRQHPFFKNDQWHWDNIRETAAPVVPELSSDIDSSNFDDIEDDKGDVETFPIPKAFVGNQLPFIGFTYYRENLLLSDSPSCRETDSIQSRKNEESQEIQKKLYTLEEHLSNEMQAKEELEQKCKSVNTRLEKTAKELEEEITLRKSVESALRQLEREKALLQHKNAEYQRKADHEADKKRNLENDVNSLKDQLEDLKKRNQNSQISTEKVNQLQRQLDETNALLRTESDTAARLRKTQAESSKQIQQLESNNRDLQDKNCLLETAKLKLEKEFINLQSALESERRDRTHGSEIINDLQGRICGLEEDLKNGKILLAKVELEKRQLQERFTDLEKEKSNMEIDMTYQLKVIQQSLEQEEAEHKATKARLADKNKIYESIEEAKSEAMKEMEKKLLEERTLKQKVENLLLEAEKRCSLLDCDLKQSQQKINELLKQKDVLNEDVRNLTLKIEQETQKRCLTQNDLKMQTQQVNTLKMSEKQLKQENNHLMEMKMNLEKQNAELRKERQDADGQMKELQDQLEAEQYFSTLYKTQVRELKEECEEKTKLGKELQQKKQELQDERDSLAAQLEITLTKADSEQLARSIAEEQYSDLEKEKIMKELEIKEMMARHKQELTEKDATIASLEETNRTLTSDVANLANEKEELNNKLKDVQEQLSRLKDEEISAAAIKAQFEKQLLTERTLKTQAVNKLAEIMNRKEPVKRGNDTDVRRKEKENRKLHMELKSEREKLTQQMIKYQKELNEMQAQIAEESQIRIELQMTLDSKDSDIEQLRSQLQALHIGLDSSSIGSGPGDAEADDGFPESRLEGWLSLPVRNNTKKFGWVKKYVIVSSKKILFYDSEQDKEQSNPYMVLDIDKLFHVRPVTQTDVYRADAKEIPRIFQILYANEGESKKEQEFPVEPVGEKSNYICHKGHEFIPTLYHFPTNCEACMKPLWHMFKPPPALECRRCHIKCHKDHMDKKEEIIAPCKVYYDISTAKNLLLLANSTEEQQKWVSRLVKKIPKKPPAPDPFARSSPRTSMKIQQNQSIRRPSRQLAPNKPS

## C=CS(=O)(=O)c1ccc(Nc2nc(OCC3CCCCC3)c3nc[nH]c3n2)cc1 [NU6300, 6-(cyclohexylmethoxy)-N-(4-(vinylsulfonyl)phenyl)-9H-purin-2-amine]
ROCK 2
  remaining activity at 1 µM: 25%
TAK1
  remaining activity at 1 µM: 14%
Src
  remaining activity at 1 µM: 39%
PAK6
  remaining activity at 1 µM: 73%
NUAK1
  remaining activity at 1 µM: 2%
PHK
  %Remaining activity at 1µM NU6300: 69%
TBK1
  remaining activity at 1 µM: 45%
PLK1
  remaining activity at 1 µM: 90%
MST3
  remaining activity at 1 µM: 54%
